Assay results published in patent US4436751A, “Nitrobenzyl monates antibacterial compounds” (Beecham Group Limited, priority 1980, dated 1984).
In brackets after ≈: the same amount, converted by molar mass. Where two headings read alike, the source gives them in different places.

Experiments:
Format in all cases: cell-based
[1] = test system: M. bovigenitalium ATOC 14173; test: Anti-mycoplasmal MIC in vitro, Friis broth agarose (Table 1); settings: 144 h
[2] = test system: M. hyorhinis ATCC 23234; test: as above; settings: Mesomycoplasma hyorhinis, ATCC23234, 144 h
[3] = test system: M. suipneumoniae Str. 11; test: as above; settings: Mesomycoplasma hyopneumoniae, STR.11, 144 h
[4] = test system: M. suipneumoniae OCD 1; test: as above; settings: Mesomycoplasma hyopneumoniae, OCD1, 144 h
[5] = test system: M. suipneumoniae LABER; test: as above; settings: Mesomycoplasma hyopneumoniae, 144 h
[6] = test system: M. suipneumoniae MS 16; test: as above; settings: Mesomycoplasma hyopneumoniae, MS16, 144 h
[7] = test system: M. gallisepticum S6; test: as above; settings: Mycoplasmoides gallisepticum
[8] = test system: S. typhimurium S18; test: Veterinary bacteria MIC, Diagnostic Sensitivity Test Agar (Table 2); settings: Salmonella enterica
Description: (§1) The values were determined using a two fold serial dilutions in Diagnostic Sensitivity Test Agar with an inoculum of 10^4 organisms and incubation for 18 hours at 37° C.

[9] = test system: S. dublin S7; test: as above; settings: Salmonella enterica
Description: as §1

[10] = test system: Staph. aureus B4; test: as above; settings: Staphylococcus aureus
Description: as §1

[11] = test system: Staph. aureus Oxford; test: as above; settings: Staphylococcus aureus
Description: as §1

[12] = test system: Bord. bronchiseptica BO8; test: as above; settings: Bordetella bronchiseptica
Description: as §1

[13] = test system: Strep. agalactiae SPA1; test: as above; settings: Streptococcus agalactiae
Description: as §1

[14] = test system: Past. haemolytica PA5; test: as above; settings: Mannheimia haemolytica
Description: as §1

[15] = test system: E. Coli E1; test: as above; settings: Escherichia coli
Description: as §1

[16] = test system: Bord. bronchiseptica BO9; test: as above; settings: Bordetella bronchiseptica
Description: as §1

[17] = test system: Past. multocida PA2; test: as above; settings: Pasteurella multocida
Description: as §1

[18] = test system: Staph. aureus 152; test: as above
Description: as §1

[19] = test system: Strep. suis (group D) SPS11; test: as above; settings: Streptococcus suis
Description: as §1

[20] = test system: Erysipelothrix rhusiopathiae NCTC 8163; test: as above
Description: as §1

[21] = test system: Corynebacterium pyogenes CY1; test: as above; settings: Trueperella pyogenes
Description: as §1

[22] = test system: E. Coli NCTC 10418; test: as above; settings: Escherichia coli
Description: as §1

[23] = test system: Strep. dylgalactiae SPD1; test: as above
Description: as §1

[24] = test system: Past. multocida PA1; test: as above; settings: Pasteurella multocida
Description: as §1

[25] = test system: Strep. uberis SPO1; test: as above; settings: Streptococcus uberis
Description: as §1

[26] = test system: M. suipneumoniae PW/C/210; test: Anti-mycoplasmal MIC in vitro, Friis broth agarose (Table 1); settings: Mesomycoplasma hyopneumoniae, 144 h
[27] = test system: M. bovis RCTC 10131; test: microbe, parasite or virus in culture; settings: RCTC10131, 144 h
[28] = test system: M. suipneumoniae ATCC 25095; test: Anti-mycoplasmal MIC in vitro, Friis broth agarose (Table 1); settings: Mesomycoplasma hyopneumoniae, ATCC25095, 144 h
[29] = S. typhimurium S18, DST Agar, 10^4 organisms, 18 hours 37° C., read-out: MIC
[30] = S. dublin S7, DST Agar, 10^4 organisms, 18 hours 37° C., read-out: MIC
[31] = Staph. aureus B4, DST Agar, 10^4 organisms, 18 hours 37° C., read-out: MIC
[32] = Staph. aureus Oxford, DST Agar, 10^4 organisms, 18 hours 37° C., read-out: MIC
[33] = Bord. bronchiseptica BO8, DST Agar, 10^4 organisms, 18 hours 37° C., read-out: MIC
[34] = Strep. agalactiae SPA1, DST Agar, 10^4 organisms, 18 hours 37° C., read-out: MIC
[35] = Past. haemolytica PA5, DST Agar, 10^4 organisms, 18 hours 37° C., read-out: MIC
[36] = E. Coli E1, DST Agar, 10^4 organisms, 18 hours 37° C., read-out: MIC
[37] = Bord. bronchiseptica BO9, DST Agar, 10^4 organisms, 18 hours 37° C., read-out: MIC
[38] = Past. multocida PA2, DST Agar, 10^4 organisms, 18 hours 37° C., read-out: MIC
[39] = Staphylococcus aureus, Staph. aureus 152, DST Agar, 10^4 organisms, 18 hours 37° C., read-out: MIC
[40] = Strep. suis (group D) SPS11, DST Agar, 10^4 organisms, 18 hours 37° C., read-out: MIC
[41] = NCTC8163, Erysipelothrix rhusiopathiae NCTC 8163, DST Agar, 10^4 organisms, 18 hours 37° C., read-out: MIC
[42] = Corynebacterium pyogenes CY1, DST Agar, 10^4 organisms, 18 hours 37° C., read-out: MIC
[43] = NCTC10418, E. Coli NCTC 10418, DST Agar, 10^4 organisms, 18 hours 37° C., read-out: MIC
[44] = Strep. dylgalactiae SPD1, DST Agar, 10^4 organisms, 18 hours 37° C., read-out: MIC
[45] = Past. multocida PA1, DST Agar, 10^4 organisms, 18 hours 37° C., read-out: MIC
[46] = Strep. uberis SPO1, DST Agar, 10^4 organisms, 18 hours 37° C., read-out: MIC

| Structure (SMILES) | MIC [1] [µg/mL] | MIC [2] [µg/mL] | MIC [3] [µg/mL] | MIC [4] [µg/mL] | MIC [5] [µg/mL] | MIC [6] [µg/mL] | MIC ([7]; S6, 144 h) [µg/mL] | MIC [8, 29] [µg/mL] | MIC [9, 30] [µg/mL] | MIC [10, 31] [µg/mL] | MIC [11, 32] [µg/mL] | MIC [12, 33] [µg/mL] | MIC [13, 34] [µg/mL] | MIC [14, 35] [µg/mL] | MIC [15, 36] [µg/mL] | MIC [16, 37] [µg/mL] | MIC [17, 38] [µg/mL] | MIC [26] [µg/mL] | MIC [27] [µg/mL] | MIC [28] [µg/mL] | further results |
| --- | --- | --- | --- | --- | --- | --- | --- | --- | --- | --- | --- | --- | --- | --- | --- | --- | --- | --- | --- | --- | --- |
| C/C(=C\C(=O)OCc1cccc([N+](=O)[O-])c1)CC1OCC(C/C=C/C(C)C(C)O)C(O)C1O (stereo not drawn) [Example 5, m-nitrobenzyl monate C] | 0.1 (≈ 0.216 µM) | 0.25 (≈ 0.539 µM) | 0.1 (≈ 0.216 µM) | 0.25 (≈ 0.539 µM) | 0.1 (≈ 0.216 µM) | 0.1 (≈ 0.216 µM) | 5 (≈ 10.8 µM) | > 80 | > 80 | 2.5 (≈ 5.39 µM) | 2.5 (≈ 5.39 µM) | > 80 | 2.5 (≈ 5.39 µM) | 40 (≈ 86.3 µM) | > 80 | 40 (≈ 86.3 µM) | 2.5 (≈ 5.39 µM) | 0.1 (≈ 0.216 µM) | 0.1 (≈ 0.216 µM) | 0.25 (≈ 0.539 µM) | MIC [18, 39]: 2.5 µg/mL (≈ 5.39 µM); MIC [19, 40]: 80 µg/mL (≈ 173 µM); MIC [20, 41]: > 80 µg/mL; MIC [21, 42]: > 80 µg/mL; MIC [22, 43]: > 80 µg/mL; MIC [23, 44]: 1.25 µg/mL (≈ 2.7 µM); MIC [24, 45]: 10 µg/mL (≈ 21.6 µM); MIC [25, 46]: 0.625 µg/mL (≈ 1.35 µM) |
| C/C(=C\C(=O)OCc1ccc([N+](=O)[O-])cc1[N+](=O)[O-])CC1OCC(CC2OC2C(C)C(C)O)C(O)C1O (stereo not drawn) [Example 10, 2,4-dinitrobenzyl monate A] | 0.025 (≈ 0.0477 µM) | 0.5 (≈ 0.953 µM) | 0.5 (≈ 0.953 µM) | 1 (≈ 1.91 µM) | 0.5 (≈ 0.953 µM) | 0.5 (≈ 0.953 µM) | 5 (≈ 9.53 µM) | – | – | – | – | – | – | – | – | – | – | 0.5 (≈ 0.953 µM) | ≤ 0.01 | 0.5 (≈ 0.953 µM) | MIC ([8]; TYPHIMURIUM, 18 h): > 80 µg/mL; MIC ([9]; S7, 18 h): > 80 µg/mL; MIC ([10]; B4, 18 h): 0.625 µg/mL (≈ 1.19 µM); MIC ([11]; 18 h): 0.625 µg/mL (≈ 1.19 µM); MIC ([12]; BO8, 18 h): 40 µg/mL (≈ 76.3 µM); MIC ([13]; SPA1, 18 h): 1.25 µg/mL (≈ 2.38 µM); MIC ([14]; PA5, 18 h): 2.5 µg/mL (≈ 4.77 µM); MIC ([15]; 18 h): > 80 µg/mL; MIC ([16]; BO9, 18 h): 5 µg/mL (≈ 9.53 µM); MIC ([17]; PA2, 18 h): 0.625 µg/mL (≈ 1.19 µM); MIC ([18]; Staphylococcus aureus, 152, 18 h): 0.625 µg/mL (≈ 1.19 µM); MIC ([19]; 18 h): 5 µg/mL (≈ 9.53 µM); MIC ([20]; Erysipelothrix rhusiopathiae, NCTC8163, 18 h): 20 µg/mL (≈ 38.1 µM); MIC ([21]; CY1, 18 h): > 80 µg/mL; MIC ([22]; NCTC10418, 18 h): > 80 µg/mL; MIC ([23]; 18 h): 0.312 µg/mL (≈ 0.595 µM); MIC ([24]; PA1, 18 h): 2.5 µg/mL (≈ 4.77 µM); MIC ([25]; SPO1, 18 h): 0.312 µg/mL (≈ 0.595 µM) |
| C/C(=C\C(=O)OC(C)c1ccc([N+](=O)[O-])cc1)CC1OCC(CC2OC2C(C)C(C)O)C(O)C1O (stereo not drawn) [Example 4, 1-(p-nitrophenyl)ethyl monate A] | 0.05 (≈ 0.101 µM) | 0.5 (≈ 1.01 µM) | 1 (≈ 2.03 µM) | 1 (≈ 2.03 µM) | 1 (≈ 2.03 µM) | 1 (≈ 2.03 µM) | – | > 80 | > 80 | 2.5 (≈ 5.07 µM) | 1.25 (≈ 2.53 µM) | > 80 | 2.5 (≈ 5.07 µM) | 20 (≈ 40.5 µM) | > 80 | 5 (≈ 10.1 µM) | 2.5 (≈ 5.07 µM) | 1 (≈ 2.03 µM) | 0.025 (≈ 0.0507 µM) | 1 (≈ 2.03 µM) | MIC ([7]; 144 h, M. gallisepticum S6, in vitro, 6 days 37° C., read-out: MIC): > 10 µg/mL; MIC [18, 39]: 1.25 µg/mL (≈ 2.53 µM); MIC [19, 40]: 20 µg/mL (≈ 40.5 µM); MIC [20, 41]: 40 µg/mL (≈ 81 µM); MIC [21, 42]: > 80 µg/mL; MIC [22, 43]: > 80 µg/mL; MIC [23, 44]: 0.625 µg/mL (≈ 1.27 µM); MIC [24, 45]: 5 µg/mL (≈ 10.1 µM); MIC [25, 46]: 0.312 µg/mL (≈ 0.632 µM) |
